Data reported in ChEMBL document CHEMBL4414593, “Prenylated Acetophloroglucinol Dimers from Acronychia trifoliolata: Structure Elucidation and Total Synthesis” (J Nat Prod, 2019).

Key:
[1] = test system: A549; test: Antiproliferative activity against human A549 cells assessed as reduction in cell viability after 72 hrs by SRB assay; assay type: functional, cell-based; details: A549, 72 h
[2] = test system: MDA-MB-231; test: Antiproliferative activity against triple-negative human MDA-MB-231 cells assessed as reduction in cell viability after 72 hrs by SRB assay; assay type: functional, cell-based; details: MDA-MB-231, 72 h
[3] = test system: KB; test: Antiproliferative activity against human KB cells assessed as reduction in cell viability after 72 hrs by SRB assay; assay type: functional, cell-based
[4] = Antiproliferative activity against P-gp overexpressing human KBVIN cells assessed as reduction in cell viability after 72 hrs by SRB assay; assay type: functional

COc1c(CC=C(C)C)c(O)c(Cc2c(O)c(CC=C(C)C)c(OC)c(C(C)=O)c2O)c(O)c1C(C)=O
IC50 [1]: 6.4 µM | IC50 [2]: 5.9 µM | IC50 [3]: 5.5 µM | IC50 [4]: 5.5 µM

COc1c(CC=C(C)C)c(O)c(C(CC(C)C)c2c(O)c(CC=C(C)C)c(OC)c(C(C)=O)c2O)c(O)c1C(C)=O
IC50 [1]: > 10 µM | IC50 [2]: > 10 µM | IC50 [3]: 7.6 µM | IC50 [4]: 8.4 µM

COc1c(CC=C(C)C)c(O)c(C(CC(C)C)c2c(O)cc(O)c(C(C)=O)c2O)c(O)c1C(C)=O (stereo not drawn)
IC50 [1]: 4.9 µM | IC50 [2]: 5.8 µM | IC50 [3]: 5.2 µM | IC50 [4]: 5 µM

COc1c(CC=C(C)C)c(O)c(Cc2c(O)cc(O)c(C(C)=O)c2O)c(O)c1C(C)=O
IC50 [1]: 5.6 µM | IC50 [2]: 6.9 µM | IC50 [3]: 5.2 µM | IC50 [4]: 5.1 µM

COc1c(CC=C(C)C)c(O)c(C(CC(C)C)c2c(O)c3c(c(C(C)=O)c2O)OC(C(C)(C)O)C3)c(O)c1C(C)=O (racemic)
IC50 [1]: > 10 µM | IC50 [2]: > 10 µM | IC50 [3]: > 10 µM | IC50 [4]: > 10 µM

COc1c(CC=C(C)C)c(O)c(C(CC(C)C)c2c(O)c(C(C)=O)c(O)c3c2OC(C)(C)C(O)C3)c(O)c1C(C)=O (racemic)
IC50 [1]: > 10 µM | IC50 [2]: > 10 µM | IC50 [3]: > 10 µM | IC50 [4]: > 10 µM

COc1c(CC=C(C)C)c(O)c(C(CC(C)C)c2c(O)c3c(c(C(C)=O)c2O)OC(C)(C)C(O)C3)c(O)c1C(C)=O (racemic)
IC50 [1]: > 10 µM | IC50 [2]: > 10 µM | IC50 [3]: > 10 µM | IC50 [4]: > 10 µM

COc1c(CC=C(C)C)c(O)c(C(CC(C)C)c2c(O)c3c(c(C(C)=O)c2O)OC(C)(C)C=C3)c(O)c1C(C)=O (racemic)
IC50 [1]: 5.9 µM | IC50 [2]: 5.4 µM | IC50 [3]: 4.9 µM | IC50 [4]: 4.3 µM

COc1c(CC=C(C)C)c(O)c(C(CC(C)C)c2c(O)c(C=O)c(O)c(C(C)=O)c2O)c(O)c1C(C)=O (racemic)
IC50 [1]: > 10 µM | IC50 [2]: > 10 µM | IC50 [3]: > 10 µM | IC50 [4]: > 10 µM

COc1c(CC=C(C)C)c(O)c(C(CC(C)C)c2c(O)c(CC=C(C)C)c(O)c(C(C)=O)c2O)c(O)c1C(C)=O (racemic)
IC50 [1]: 6.1 µM | IC50 [2]: 6.4 µM | IC50 [3]: 4.9 µM | IC50 [4]: 4.4 µM

C=C(C)C(O)Cc1c(O)c(C(C)=O)c(O)c(C(CC(C)C)c2c(O)c(CC=C(C)C)c(OC)c(C(C)=O)c2O)c1O (racemic) [ACROVESTENOL]
IC50 [1]: > 10 µM | IC50 [2]: 10 µM | IC50 [3]: 6 µM | IC50 [4]: 6.5 µM

CC(=O)O[C@H]1C(=O)[C@@]2(C)[C@H]([C@H](OC(=O)c3ccccc3)[C@]3(O)C[C@H](OC(=O)[C@H](O)[C@@H](NC(=O)c4ccccc4)c4ccccc4)C(C)=C1C3(C)C)[C@]1(OC(C)=O)CO[C@@H]1C[C@@H]2O [PACLITAXEL]
IC50 [1]: 0.0063 µM | IC50 [2]: 0.0107 µM | IC50 [3]: 0.0074 µM | IC50 [4]: 4.53 µM
